Reference: patent publication US8883801B2, “Substituted pyrazolo[1,5-a]pyrimidines as mTOR inhibitors” (Merck Sharp & Dohme Corp., priority 2010, dated 2014)
pIC50: −log10 of the molar value.

Experiments:
[1] = tested on: mTORC2 activity: phosphorylated AKT Ser473 (pAKT S473) in PC3 cells; assay: mTOR target engagement assay, immunofluorescent cell-based, mTORC2 readout; conditions: Homo sapiens, PC-3, 1.5 h, rated class, 90 min treatment
Outline: (§1)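 Read-out is immunofluorescence intensity, normalized to DMSO-only wells and fitted to a sigmoidal Hill equation for IC50. The mTORC1 arm probes phospho-4E-BP1 Thr37/46 and the mTORC2 arm phospho-AKT Ser473.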

[2] = tested on: mTORC1 activity: phosphorylated 4E-BP1 Thr37/46 (p4E-BP1 Thr37/46) in PC3 cells; assay: mTOR target engagement assay, immunofluorescent cell-based, mTORC1 readout; conditions: Homo sapiens, PC-3, 1.5 h, rated class, 90 min treatment, read-out: P4EBP1 IC50
Outline: as §1

human mTOR enzyme = human mTOR enzyme (Homo sapiens, UniProt P42345); assay: HTRF mTOR enzyme (kinase) assay; format: biochemical; conditions: rated class; 5 μM ATP, 0.2 μM GST-S6K; read-out: hMTOR IC50
Chain of human mTOR enzyme (P42345 1360-2549 limits assumed): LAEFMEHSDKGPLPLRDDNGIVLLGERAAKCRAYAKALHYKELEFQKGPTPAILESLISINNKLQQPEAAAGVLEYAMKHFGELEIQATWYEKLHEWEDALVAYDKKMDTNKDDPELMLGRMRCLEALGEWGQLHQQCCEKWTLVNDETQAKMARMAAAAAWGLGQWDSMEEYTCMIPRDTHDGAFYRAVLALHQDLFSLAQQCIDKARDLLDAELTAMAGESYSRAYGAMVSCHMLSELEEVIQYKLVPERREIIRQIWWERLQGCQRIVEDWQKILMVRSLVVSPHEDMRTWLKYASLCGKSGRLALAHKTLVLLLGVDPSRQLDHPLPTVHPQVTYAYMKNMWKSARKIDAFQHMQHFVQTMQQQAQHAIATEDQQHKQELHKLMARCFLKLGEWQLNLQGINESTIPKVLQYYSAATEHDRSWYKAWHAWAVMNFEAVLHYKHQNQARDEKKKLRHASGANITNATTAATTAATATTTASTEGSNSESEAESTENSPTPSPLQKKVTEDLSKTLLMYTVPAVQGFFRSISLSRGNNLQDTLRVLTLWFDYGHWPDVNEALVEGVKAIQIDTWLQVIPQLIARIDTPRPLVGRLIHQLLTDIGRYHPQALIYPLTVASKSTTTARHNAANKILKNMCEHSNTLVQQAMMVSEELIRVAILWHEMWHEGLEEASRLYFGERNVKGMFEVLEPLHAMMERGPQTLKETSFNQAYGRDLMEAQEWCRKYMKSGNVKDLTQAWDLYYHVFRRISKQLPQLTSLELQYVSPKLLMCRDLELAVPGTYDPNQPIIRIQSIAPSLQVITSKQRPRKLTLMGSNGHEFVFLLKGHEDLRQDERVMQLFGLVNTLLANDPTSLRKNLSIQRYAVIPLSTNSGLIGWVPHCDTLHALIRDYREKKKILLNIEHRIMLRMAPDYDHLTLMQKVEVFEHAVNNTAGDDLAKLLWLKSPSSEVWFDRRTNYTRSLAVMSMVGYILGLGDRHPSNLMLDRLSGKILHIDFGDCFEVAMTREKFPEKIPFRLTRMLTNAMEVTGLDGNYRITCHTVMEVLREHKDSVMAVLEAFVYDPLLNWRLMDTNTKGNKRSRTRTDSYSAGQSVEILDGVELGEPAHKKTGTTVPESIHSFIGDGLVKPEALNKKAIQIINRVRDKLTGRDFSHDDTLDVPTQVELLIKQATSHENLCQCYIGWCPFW

Row | SMILES | pIC50 [1] | pIC50 [2] | pIC50 (human mTOR enzyme)
1 | CC(=O)c1c(C2CCC(O)(CO)CC2)nc2c(-c3cnc(-c4ccccc4)nc3)cnn2c1N (stereo not drawn) [Compound 158, 1-(7-amino-5-(4-hydroxy-4-(hydroxymethyl)-cyclohexyl)-3-(2-phenylpyrimidin-5-yl)pyrazolo[1,5-a]pyrimidin-6-yl)ethanone] | 6.00 to 7.00 | 6.00 to 7.00 | 7.00 to 9.00
2 | CC(=O)c1c(C2CCC(O)(CNS(C)(=O)=O)CC2)nc2c(-c3ccc(-c4ccccc4)nc3)cnn2c1N (stereo not drawn) [Compound 160, N-((4-(6-acetyl-7-amino-3-(6-phenylpyridin-3-yl)pyrazolo[1,5-a]pyrimidin-5-yl)-1-hydroxycyclohexyl)methyl)methanesulfonamide] | 6.00 to 7.00 | 6.00 to 7.00 | 7.00 to 9.00
3 | CC(=O)c1c(N)n2ncc(-c3ccc(-c4ccccc4)nc3)c2nc1[C@H]1CC[C@@](O)(CS(C)(=O)=O)CC1 [Compound 161, 1-(7-amino-5-((1R,4R)-4-hydroxy-4-(methylsulfonylmethyl)cyclohexyl)-3-(6-phenylpyridin-3-yl)pyrazolo[1,5-a]pyrimidin-6-yl)ethanone] | 6.00 to 7.00 | 6.00 to 7.00 | 7.00 to 9.00

Continued, values first:

Row | pIC50 [1] | pIC50 [2] | pIC50 (human mTOR enzyme) | SMILES
4 | 7.00 to 9.00 | 6.00 to 7.00 | 7.00 to 9.00 | CC(=O)c1c(N)n2ncc(-c3ccc(-c4ccccc4)nc3)c2nc1[C@H]1CC[C@](O)(CO)CC1 [Compound 140, 1-(7-amino-5-((1S,4S)-4-hydroxy-4-(hydroxymethyl)cyclohexyl)-3-(6-phenylpyridin-3-yl)pyrazolo[1,5-a]pyrimidin-6-yl)ethanone]
5 | 6.00 to 7.00 | 6.00 to 7.00 | 7.00 to 9.00 | CC(=O)c1c(C2CCC(O)(CO)CC2)nc2c(-c3ccc(-c4nccs4)nc3)cnn2c1N (stereo not drawn) [Compound 156, 1-(7-amino-5-(4-hydroxy-4-(hydroxymethyl)-cyclohexyl)-3-(6-(thiazol-2-yl)pyridin-3-yl)pyrazolo[1,5-a]pyrimidin-6-yl)ethanone]
6 | 7.00 to 9.00 | 6.00 to 7.00 | 7.00 to 9.00 | CC(=O)c1c(N)n2ncc(-c3ccc(-c4ccccc4)nc3)c2nc1[C@H]1CC[C@](O)(CS(C)(=O)=O)CC1 [Compound 162, 1-(7-amino-5-((1S,4S)-4-hydroxy-4-(methylsulfonylmethyl)cyclohexyl)-3-(6-phenylpyridin-3-yl)pyrazolo[1,5-a]pyrimidin-6-yl)ethanone]
7 | 7.00 to 9.00 | 6.00 to 7.00 | 7.00 to 9.00 | CS(=O)(=O)c1c(C2CCC(O)(CO)CC2)nc2c(-c3cnn(-c4ccccc4)c3)cnn2c1N (stereo not drawn) [Compound 166, 4-(7-amino-6-(methylsulfonyl)-3-(1-phenyl-1H-pyrazol-4-yl)pyrazolo[1,5-a]pyrimidin-5-yl)-1-(hydroxymethyl)cyclohexanol]
